Measurements: patent publication US12533389B2, “Glycopeptide antibiotic combination therapy” (The Trustees of Princeton University, priority 2021, dated 2026)
Values after ≈ are worked out from the molar mass of the structure shown. Read-outs that look alike come from different tables or passages of the source.

How the values were obtained:
tripeptide ligand = conditions: cited from earlier work
C. difficile infection = conditions: compared to metronidazole and vancomycin; cited from earlier work
selected gut bacteria = test: Antimicrobial susceptibility profile of selected gut bacteria; format: cell-based
C. difficile P8 [1] = test: Checkerboard agar dilution of vancomycin in combination with keratinicyclin B; format: cell-based, Clostridium difficile
Description: Minimal inhibitory concentrations (MICs) were determined by the agar dilution method following the guidelines of the Clinical and Laboratory Standards Institute (CLSI). […] The effect of vancomycin in combination with keratinicyclin B against C. difficile P8 was assessed by the checkerboard agar dilution method. […] The antibiotic agar plates were prereduced in an anaerobic container prior to inoculation. […] To avoid the selection of an atypical variant, five colonies were suspended in prereduced Gifu anaerobic broth and grown to a density equivalent to a 0.5 McFarland standard (1-2×10^8 cfu/mL). Once the appropriate cell density was reached, the prereduced antibiotic agar plates were inoculated (10^5 cfu/spot). After incubating anaerobically at 37° C. for 48 h, the plates were inspected for bacterial growth. The MIC was defined as the lowest concentration of antibiotic leading to no growth, one colony, or a fine haze. […] The combination effect was defined as synergistic when ΣFIC≤0.5, additive when 0.5<ΣFIC≤1, indifferent when 1<ΣFIC≤2, and antagonistic when ΣFIC>2.

C. difficile = conditions: cited from earlier work
C. difficile P8 [2] = test: MIC by agar dilution method (CLSI); format: cell-based, Clostridium difficile
Description: Minimal inhibitory concentrations (MICs) were determined by the agar dilution method following the guidelines of the Clinical and Laboratory Standards Institute (CLSI). […] The effect of vancomycin in combination with keratinicyclin B against C. difficile P8 was assessed by the checkerboard agar dilution method. […] The antibiotic agar plates were prereduced in an anaerobic container prior to inoculation. […] To avoid the selection of an atypical variant, five colonies were suspended in prereduced Gifu anaerobic broth and grown to a density equivalent to a 0.5 McFarland standard (1-2×10^8 cfu/mL). […] After incubating anaerobically at 37° C. for 48 h, the plates were inspected for bacterial growth. The MIC was defined as the lowest concentration of antibiotic leading to no growth, one colony, or a fine haze.

[3] = system: Nα,Nε-diacetyl-L-Lys-D-Ala-D-Ala tripeptide; test: Isothermal titration calorimetry (ITC) equilibrium binding of GPAs to the tripeptide ligand; conditions: for ΔG: Experiment (ITC)
[4] = system: Clostridium difficile, Strain P8; test: Antimicrobial susceptibility profile of selected gut bacteria; format: cell-based; conditions: drug alone
[5] = system: Clostridium perfringens, Strain WAL-14572; format: cell-based; conditions: drug alone
[6] = system: Ruminococcus lactaris, Strain CC59_002D, HM-1057; test: Antimicrobial susceptibility profile of selected gut bacteria; format: cell-based; conditions: drug alone
[7] = system: diverse Gram-positive bacteria; conditions: cited from earlier work
[8] = ITC, 25° C., 0.1 M sodium phosphate buffer, pH 7

**Q.** With C[C@@H]1O[C@@H](O[C@H]2[C@H](Oc3c4cc5cc3Oc3ccc(cc3Cl)[C@@H](O)[C@@H](N)C(=O)N[C@@H](CC(N)=O)C(=O)N[C@H]5C(=O)N[C@H]3C(=O)N[C@H](C(=O)N[C@H](C(=O)O)c5cc(O)cc(O)c5-c5cc3ccc5O)[C@H](O)c3ccc(c(Cl)c3)O4)O[C@H](CO)[C@@H](O)[C@@H]2O)C[C@](C)(N)[C@@H]1O [desleucyl-1] as the molecule, how does the Kd (tripeptide ligand; Experiment section of Table 2, reported value) read?
**A.** ~20000 µM

**Q.** What about the “binding of the tripeptide ligand” value (tripeptide ligand; N-terminal N-Me-D-Leu removed by Edman degradation) of the same molecule?
**A.** does not bind the tripeptide ligand

**Q.** What about the Kd (tripeptide ligand; reported experimental value) of the same molecule?
**A.** ~20000 µM

**Q.** Which recurrence rates (C. difficile infection) does the source give for CCc1c(Cl)c(O)c(Cl)c(O)c1C(=O)O[C@H]1[C@H](O)[C@H](OC)[C@H](OC/C2=C\C=C\C[C@H](O)/C(C)=C/[C@H](CC)[C@@H](O[C@@H]3OC(C)(C)[C@@H](OC(=O)C(C)C)[C@H](O)[C@@H]3O)/C(C)=C/C(C)=C/C[C@@H]([C@@H](C)O)OC2=O)O[C@@H]1C [fidaxomicin] here?
**A.** halves recurrence rates

**Q.** What does the source list for CO[C@H]1[C@H](C)O[C@@H](O[C@@H]2c3ccc(c(Cl)c3)Oc3cc4cc(c3O[C@@H]3O[C@H](CO)[C@@H](O)[C@H](O)[C@H]3O[C@H]3C[C@H](N)[C@@H](O)[C@H](C)O3)Oc3ccc(cc3)[C@H]3OC(=O)N[C@H]3C(=O)N[C@@H](Cc3ccccc3)C(=O)N[C@H]4C(=O)N[C@H]3C(=O)N[C@@H]2C(=O)N[C@H](C(=O)O)c2cc(O)cc(O[C@H]4O[C@H](CO)[C@@H](O)[C@H](O)[C@@H]4O)c2-c2cc3ccc2O)C[C@@H]1N [keratinicyclin B]?
**A.** spectrum of antibacterial activity (selected gut bacteria; each drug alone, FIG. 5): narrower spectrum of antibiotic activity; Checkerboard analysis result (C. difficile P8 [1]; keratinicyclin B 4 μg/mL + vancomycin 0 μg/mL): I (I = indifference); Checkerboard analysis result (C. difficile P8 [1]; keratinicyclin B 8 μg/mL + vancomycin 0 μg/mL): I (I = indifference); minimal inhibitory concentration (MIC) (C. difficile; previous bioactivity data): 9.8 µM (≈ 16.1 µg/mL); spectrum of activity (C. difficile; previously shown): narrow-spectrum activity against C. difficile; MIC (C. difficile P8 [2]; alone, anaerobic, 37° C., 48 h): 4 µg/mL; binding of the tripeptide ([3]; ITC, several concentrations tested): did not bind the tripeptide; Kd ([3]; ITC, estimated based on the sensitivity of the setup): > 500 µM; growth inhibition [4]: inhibiting the growth; growth inhibition [5]: inhibiting the growth; growth inhibition [6]: inhibiting the growth

**Q.** With CN[C@H](CC(C)C)C(=O)N[C@H]1C(=O)N[C@@H](CC(N)=O)C(=O)N[C@H]2C(=O)N[C@H]3C(=O)N[C@H](C(=O)N[C@H](C(=O)O)c4cc(O)cc(O)c4-c4cc3ccc4O)[C@H](O)c3ccc(c(Cl)c3)Oc3cc2cc(c3O[C@@H]2O[C@H](CO)[C@@H](O)[C@H](O)[C@H]2O[C@H]2C[C@](C)(N)[C@H](O)[C@H](C)O2)Oc2ccc(cc2Cl)[C@H]1O [vancomycin] as the molecule, how does the “spectrum of antibacterial activity” value (selected gut bacteria) read?
**A.** broad-spectrum antibacterial activity against all tested Gram-positive bacteria

**Q.** And the MIC (C. difficile P8 [2]; Clostridioides difficile, P8, 48 h)?
**A.** 1 µg/mL

**Q.** And the ΔG [3]?
**A.** -7.6 kcal/mol

**Q.** And the Kd [3, 8]?
**A.** 2.7 ± 0.4 µM

**Q.** And the TΔS ([3]; ITC, 25° C., pH 7)?
**A.** -0.96 kcal/mol

**Q.** What about the ΔH ([3]; ITC, 25° C., pH 7) of the same molecule?
**A.** -8.6 ± 0.5 kcal/mol

**Q.** What does the source list for keratinimicin A?
**A.** ΔG [3]: -7.9 kcal/mol; TΔS ([3]; ITC, 25° C., pH 7): 0.85 kcal/mol; Kd ([3]; ITC, 25° C., pH 7, unit inferred): 1.7 ± 0.3 µM; spectrum of activity [7]: broad-spectrum activity against diverse Gram-positive bacteria

**Q.** For keratinimicin C, which Kd [3, 8] is on record?
**A.** 2.8 ± 0.3 µM

**Q.** What about the TΔS ([3]; ITC, 25° C., pH 7) of the same molecule?
**A.** 0.2 kcal/mol

**Q.** And the ΔH ([3]; ITC, 25° C., pH 7)?
**A.** -7.4 ± 0.3 kcal/mol
